The series is described as follows: gradient 5% acetonitrile 3 min, to 50% in 2 min, to 85% in 15 min, held 3 min, 100 µL/min. The conditions noted are these: column: Zorbax Extend-C18 2.1 x 50 mm; eluents: water / acetonitrile, 0.1% formic acid. In outline:
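Retention times come from adduct peaks that were picked computationally and then checked by hand. The standards, pure and pooled in mixtures of ~100 molecules, were run on a Zorbax Extend-C18 column (2.1 × 50 mm, 1.8 μm) at 100 μL/min with water and acetonitrile, each with 0.1% formic acid. Detection was by quadrupole time-of-flight mass spectrometry in positive and negative ionization mode, with a dead volume of 40 μL and a dwell volume of 900 μL.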
For `O=C(CCCc1nc2cccnc2n1Cc1ccccc1)N1CCN(c2ccccn2)CC1`, the RP-LC retention time came to 603 s.
Regarding `CC(=O)NCCCCCCNC(C)=O`, the RP-LC retention time was 604 s.
In the case of `Cc1ccc(S(=O)(=O)N(c2ccc(Br)cc2)C2C=CS(=O)(=O)C2)cc1` (stereo not drawn) it was 887 s.
For `Cc1nc(-c2ccc(N3CCN(C(=O)c4nccc5ccccc45)CC3)nc2)sc1C`, the RP-LC retention time came out at 867 s.
For the compound `O=C(NCc1ccc(F)cc1)N1CCCN(c2nc3cccnc3s2)CC1`, the RP-LC retention time was 687 s.
In the case of `COc1cn2c(cc1=O)C(=O)N(CCNC(=O)C1c3ccccc3Oc3ccccc31)CC2`, the RP-LC retention time came out at 592 s.
Compound `Cc1ccsc1C(=O)N1CC[C@@H](n2c(=O)n(C)c3cccnc32)C1` yielded an RP-LC retention time of 710 s.
In the case of `Cc1nnc(N2CCCC(C(=O)NCCc3ccc(Cl)cc3)C2)c2nn(-c3ccccc3)c(C)c12` (stereo not drawn) it was 784 s; in that of `COc1ccc2c(c1OC)C(=O)O[C@@H]2[C@H]1c2cc3c(cc2CCN1C)OCO3`, 660 s; in that of `CSc1ccc(C2C(C(=O)N3CCOCC3)=C(C)NC3=C2C(=O)CC(C)(C)C3)cc1` (stereo not drawn), 696 s.
In the case of `COc1ccc(-c2nnc(Cc3nc(-c4cccc(C)c4)no3)o2)cc1OC` it was 983 s; in that of `CCOc1ccc(NC(=O)C2CCCN2S(=O)(=O)c2cc3c(cc2Cl)NC(=O)CO3)cc1` (stereo not drawn), 785 s; in that of `CCN(C(=O)C1C(=O)NC2(C)CC1c1ccccc1O2)c1ccccc1` (stereo not drawn), 820 s.
In the case of `O=C1C(Nc2ccccc2)=CC(=O)c2ncccc21` it was 734 s.
Consider `COCCC(=O)N1CCCN(C2=NS(=O)(=O)C(c3ccc(C)cc3)=C2C)CC1`, for which the RP-LC retention time was found to be 720 s.
`O=C(c1nnc(-c2ccc(S(=O)(=O)N3CCCC3)cc2)o1)N1CCCC1`: the RP-LC retention time stood at 764 s.
The compound `COc1ccc2[nH]cc(CCNC(=O)C(C)n3c4ccccc4c4cnn(C)c(=O)c43)c2c1` (stereo not drawn) showed an RP-LC retention time of 813 s.
In the case of `COc1ccc(C)cc1NC(=O)N1CCC(OC2CCN(S(C)(=O)=O)CC2)CC1`, the RP-LC retention time amounted to 810 s.
Next, `CCc1ccc(NC(=O)Nc2ccc3nc(N4CCN(C)CC4)cc(C)c3c2)cc1`: 609 s; `O=C(NCCN1CCOCC1)C1CCN(S(=O)(=O)c2ccc(-c3noc(C4CC4)n3)cc2)CC1`: 642 s.
Consider `CCN1C(=O)CCc2cc(NS(=O)(=O)c3ccccc3C(=O)OC)ccc21`, for which the RP-LC retention time stood at 790 s.
Next, `COCCN1C(=O)c2cccn2CC1CNS(=O)(=O)c1cccc2nsnc12` (stereo not drawn): 677 s.
`CCn1cc(S(=O)(=O)Nc2ccccc2F)c2cccnc21` returned an RP-LC retention time of 790 s.
`O=C(Cc1cccs1)Nc1ccc(Nc2ccc(-n3cccn3)nn2)cc1` registered an RP-LC retention time of 708 s.
Take `CCN1CCN(c2c(S(=O)(=O)c3ccc(OC)cc3)cnc3cc(OC)c(OC)cc23)CC1`: the RP-LC retention time turned out to be 628 s.
Next, `COC(=O)CCNC(=O)C1c2ccccc2C(=O)N(CC(C)C)C12CCCCC2` (stereo not drawn): 842 s; `Cc1csc(-c2cc(S(=O)(=O)Nc3ccc(Cl)cc3F)c(C)s2)n1`: 1080 s; `Cc1cccc(CN2CCN(C3CCN(C(=O)Nc4ccc5c(c4)OCCO5)CC3)C2=O)c1`: 804 s.
Next, `COc1cccc2c1ccn2CCNC(=O)C1CC(=O)N(c2n[nH]c3ccccc23)C1` (stereo not drawn): 722 s; `Cc1ncoc1C(=O)N[C@@H]1CN(S(C)(=O)=O)C[C@H]1CN(C)C`: 516 s.
As to `CCOC(=O)c1ccc(NC(=O)C2(c3cccs3)CCOCC2)cc1`, the RP-LC retention time came to 956 s.
On to `O=C(c1cnn2c1CCCC2)N1CCCC1`, for which the RP-LC retention time was determined as 614 s.
The compound `CCc1nc(-c2csc(S(=O)(=O)N3CCCC(C(=O)Nc4ccccc4Cl)C3)c2)no1` (stereo not drawn) yielded an RP-LC retention time of 1020 s.
Next, `CCN1C(=O)c2cccnc2Sc2cc(C(=O)NCc3cccc(F)c3)ccc21`: 810 s.
Next, `Cc1cc2nnc(SCC(=O)Nc3nc(-c4ccccc4)cs3)n2c2ccccc12`: 964 s; `COc1ccc(Cn2nc3ccc(S(=O)(=O)N4CCCCC4)cn3c2=O)cc1F`: 918 s; `Nc1cc(C2CCN(C(=O)c3nccc4ccccc34)CC2)no1`: 647 s.
Next, `CN(C)c1ccc2c(c1)CN(C(=O)c1cnn(C)c1)CCO2`: 560 s; `Cc1cc(-c2nnc(-c3ccc(F)cc3)o2)c(C)n1CC(=O)Nc1ccc(F)cc1`: 964 s; `CC1=C(c2ccc(C)cc2)S(=O)(=O)N=C1N1CCCN(C(=O)c2ccco2)CC1`: 653 s.
Turning to `Cc1cc(F)ccc1NS(=O)(=O)c1cn(CC(C)C)c2ncccc12`, the RP-LC retention time is 986 s.
In the case of `Cc1[nH]nc(-c2c(C)sc(C)c2S(=O)(=O)NCc2ccc(Cl)cc2)c1C` it was 1100 s; in that of `CC(C)CNC(=O)C1CCN(C(=O)Nc2ccc(NC(=O)Nc3ccccc3)cc2)CC1`, 812 s; in that of `COc1cccc(C(=O)CSc2ccc(-n3cccn3)nn2)c1`, 847 s.
`CC(C)n1cnc2ccc(-c3noc(CSc4ccncc4)n3)cc21` returned an RP-LC retention time of 565 s.
In the case of `Cc1ccc(NS(=O)(=O)c2cc(-c3[nH]ncc3C(=O)N3CCCC3)oc2C)cc1` it was 715 s.
For the compound `O=C(Nc1nc(-c2ccccc2)cs1)C1Cc2ccccc2CN1S(=O)(=O)c1cccs1` (stereo not drawn), the RP-LC retention time stood at 1160 s.
In the case of `Cc1oc(-c2cccc(Cl)c2)nc1Cn1nnc(-c2nc(-c3cccc(F)c3)no2)c1C` it was 1360 s; in that of `COc1ccc(-c2nnc(-c3ccc(Cl)c(S(=O)(=O)N4CCCC4)c3)o2)cc1`, 1060 s; in that of `CS(=O)(=O)N1CCCc2ccc(NS(=O)(=O)c3ccccc3Cl)cc21`, 806 s.
Consider `COc1ccc(C2CC(=O)Nc3c(C(=O)O)cn(-c4cccc(F)c4)c32)cc1OC` (stereo not drawn), for which the RP-LC retention time amounted to 728 s.
Next, `Cc1cc(C)n(-c2ccc(SCC(=O)N3CCCc4ccccc43)nn2)n1`: 914 s.
In the case of `O=C(COc1cccc(C(F)(F)F)c1)N1CCN(c2ccc(-c3ccco3)nn2)CC1` it was 739 s.
`Cc1oc(-c2[nH]ncc2C(=O)N2CCCC2)cc1S(=O)(=O)NCc1cccc(F)c1` came in with an RP-LC retention time of 706 s.
`c1ccc(Nc2c(-c3ccccc3)nc3cnccn23)cc1` displayed an RP-LC retention time of 826 s.
Compound `CS(=O)(=O)c1ccc(C(=O)Nc2cccc(Cl)c2Cl)cc1` had an RP-LC retention time of 791 s.
As for `N#Cc1ccc(C(=O)Nc2cnc(N3CCCCCC3)nc2)cc1`, the RP-LC retention time was determined as 891 s.
In the case of `CC(=O)Nc1ccc(S(=O)(=O)NC2(c3nc(C4CC4)no3)CCCCC2)cc1Cl` it was 813 s; in that of `O=c1ccc(-n2cccn2)nn1CCNS(=O)(=O)c1ccc(Cl)s1`, 708 s.
Next, `O=C1CC(c2cccc(F)c2)c2c(c(C(=O)O)cn2-c2ccc(F)cc2)N1` (stereo not drawn): 774 s.
Next, `COc1ccc(OC)c(CNC(=O)C2CCCN(c3ncnc4c3oc3ccccc34)C2)c1` (stereo not drawn): 761 s; `CCn1cc(-c2nc(C)c(C(=O)N3CCc4ccccc4C3)s2)c2cccnc21`: 987 s.
`CC(=O)N1c2ccc(S(=O)(=O)N3CCCC3)cc2CC1C(=O)NCCCN1CCCCCC1` (stereo not drawn): the RP-LC retention time is 619 s.
Next, `Cc1ccc(Cn2nnc3cc(C(=O)N4CCN(c5ncccn5)CC4)ccc32)cc1`: 822 s; `CC(C)CC(=O)Nc1nc(-c2ccc3c(c2)N(C)C(=O)CO3)cs1`: 830 s; `CCn1cc(S(=O)(=O)Nc2cccc(C#N)c2)c2cccnc21`: 781 s.
In the case of `Cc1cc(C(=O)Nc2nc(-c3ccccc3)cs2)ccc1[N+](=O)[O-]`, the RP-LC retention time is 1080 s.
Next, `O=C(NC(c1ccccc1)c1nnc(N2CCCC2)o1)c1ccc(Cl)cc1` (stereo not drawn): 860 s.
In the case of `COc1cccc(CNC(=O)C2CCN(S(=O)(=O)c3ccc4c(c3)sc(=O)n4C)CC2)c1` it was 798 s.
Compound `O=C(O)c1cc(-c2cccs2)[nH]c(=O)n1` yielded an RP-LC retention time of 551 s.
In the case of `CN(Cc1ccccc1)c1ccc(-c2noc(CN3CCSCC3)n2)cn1` it was 930 s; in that of `COc1ccc(C(O)Cn2ccn3nc(-c4cc(C)ccc4C)cc3c2=O)cc1OC` (stereo not drawn), 879 s.
In the case of `Cc1ncc2c(n1)CCN(C(=O)c1ccc(Cl)cc1)C2` it was 627 s; in that of `COc1ccc(-c2ccnc3nc(CCc4ccc(OC)c(OC)c4)nn23)cc1`, 859 s.
In turn, `CCCn1cc(CCNS(=O)(=O)c2cccc(F)c2)c2cccnc21` showed an RP-LC retention time of 837 s.
Next, `COc1ccc(CN2CCC3(CC2)CC(C)(O)CCO3)cc1OC` (stereo not drawn): 583 s; `Cc1cc(C)c(C)c(S(=O)(=O)NCC(=O)N2CCN(c3ccccc3)CC2)c1C`: 966 s.
For `Cc1ccc(S(=O)(=O)C2CS(=O)(=O)CC2S(=O)(=O)c2ccc(C)cc2)cc1` (stereo not drawn), the RP-LC retention time was found to be 856 s.

The values are drawn from the METLIN SMRT retention time set (Domingo-Almenara et al. 2019).
